# In US6559102B1, “Substituted 3-aryl-pyrazoles” (Bayer Aktiengesellschaft, priority 1998, dated 2003):
# System: weeds
# Experiment: Post-emergence test (Example B), activity against weeds
# Type: in vivo
# Settings: test plants 5-15 cm sprayed, rated after three weeks
# Description: Post-emergence Test Solvent: 5 parts by weight of acetone Emulsifier: 1 part by weight of alkylaryl polyglycol ether To produce a suitable preparation of active compound, 1 part by weight of active compound is mixed with the stated amount of solvent, the stated amount of emulsifier is added and the concentrate is diluted with water to the desired concentration. Test plants which have a height of 5-15 cm are sprayed with the preparation of the active compound in such a way as to apply the particular amounts of active compound desired per unit area. The concentration of the spray liquor is chosen so that the amounts of active compound desired in each case are applied in 1000 l of water/ha. After three weeks, the degree of damage to the plants is rated in % damage in comparison with the development of the untreated control. The figures denote: 0%=no effect (like untreated control) 100%=total destruction
row,SMILES,activity against weeds (degree of damage)
1,"CCOC(=O)C(C)Oc1ccc(Oc2cc(-c3nn(C)c(OC(F)F)c3Br)c(F)cc2C#N)cc1 (stereo not shown) [Example 1, ethyl 2-[4-[2-cyano-5-[4-bromo-5-(difluoromethoxy)-1-methyl-1H-pyrazo-3-yl]-4-fluoro-phenoxy]-phenoxy]-propionate]",strong activity against weeds

# System: not given
# Experiment: not given
# Settings: not given
row,melting point [°C],SMILES
1,60,"CCOC(=O)C(C)Oc1ccc(Oc2cc(-c3nn(C)c(OC(F)F)c3Br)c(F)cc2C#N)cc1 (stereo not shown) [Example 1, ethyl 2-[4-[2-cyano-5-[4-bromo-5-(difluoromethoxy)-1-methyl-1H-pyrazo-3-yl]-4-fluoro-phenoxy]-phenoxy]-propionate]"
2,123,"Cn1nc(-c2cc(Oc3ccccc3)c(C#N)cc2F)c(Cl)c1C(F)(F)F [Example 2, 4-chloro-3-(4-cyano-2-fluoro-5-phenoxyphenyl)-1-methyl-5-trifluoromethyl-1H-pyrazole]"

# System: not listed separately
# Experiment: log P determination by HPLC, reversed-phase column (EEC Directive 79/831 Annex V.A8)
# Type: physicochemical
# Settings: reversed-phase C 18, 43° C., acidic range: 0.1% aqueous phosphoric acid, acetonitrile, gradient 10% to 90% (data labelled a))
# Description: The log P values given in Table 1 were determined in accordance with the EEC Directive 79/831 Annex V.A8 by HPLC (High Performance Liquid Chromatography) using a reversed-phase column (C 18). Temperature: 43° C. (a) Mobile phases for the determination in the acidic range: 0.1% aqueous phosphoric acid, acetonitrile; linear gradient from 10% acetonitrile to 90% acetonitrile—the corresponding data are labelled a) in Table 1. (b) Mobile phases for the determination in the neutral range: 0.01 molar aqueous phosphate buffer solution, acetonitrile; linear gradient from 10% acetonitrile to 90% acetonitrile—the corresponding data are labelled b) in Table 1. The calibration was carried out using unbranched alkan-2-ones (having from 3 to 16 carbon atoms) whose log P values are known (determination of the log P values by the retention times by linear interpolation between two successive alkanones).
row,log P,SMILES
1,logP: 2.03^a),CN(C)Cc1ccccc1Oc1cc(-c2nn(C)c(OC(F)F)c2Cl)c(F)cc1C#N [Example 121]
2,logP: 3.72^a),COc1ccc(Oc2cc(-c3nn(C)c(OC(F)F)c3Cl)c(F)cc2C#N)cc1OC [Example 126]
3,logP: 4.17^a),Cn1nc(-c2cc(Oc3cccc(F)c3)c(C#N)cc2F)c(Cl)c1OC(F)F [Example 71]
4,logP: 4.02^a),Cn1nc(-c2cc(Oc3ccccc3F)c(C#N)cc2F)c(Cl)c1OC(F)F [Example 70]
5,logP: 4.40^a),Cc1ccccc1Oc1cc(-c2nn(C)c(OC(F)F)c2Cl)c(F)cc1C#N [Example 56]
6,logP: 3.20^a),CN(C)C(=O)c1ccccc1Oc1cc(-c2nn(C)c(OC(F)F)c2Cl)c(F)cc1C#N [Example 115]
7,logP: 4.45^a),Cc1ccc(Oc2cc(-c3nn(C)c(OC(F)F)c3Cl)c(F)cc2C#N)cc1 [Example 58]
8,logP: 4.05^a),COc1ccc(Oc2cc(-c3nn(C)c(OC(F)F)c3Cl)c(F)cc2C#N)cc1 [Example 61]
9,logP: 4.38^a),CN(C)c1cccc(Oc2cc(-c3nn(C)c(OC(F)F)c3Cl)c(F)cc2C#N)c1 [Example 116]
10,logP: 4.49^a),Cn1nc(-c2cc(Oc3cccc(Cl)c3)c(C#N)cc2F)c(Cl)c1OC(F)F [Example 68]
11,logP: 4.13^a),COc1cccc(Oc2cc(-c3nn(C)c(OC(F)F)c3Cl)c(F)cc2C#N)c1 [Example 60]
12,logP: 4.13^a),Cn1nc(-c2cc(Oc3ccc(F)cc3)c(C#N)cc2F)c(Cl)c1OC(F)F [Example 72]
13,logP: 3.98^a),COc1ccccc1Oc1cc(-c2nn(C)c(OC(F)F)c2Cl)c(F)cc1C#N [Example 59]
14,logP: 4.49^a),Cn1nc(-c2cc(Oc3ccc(Cl)cc3)c(C#N)cc2F)c(Cl)c1OC(F)F [Example 69]
15,logP: 4.43^a),Cc1cccc(Oc2cc(-c3nn(C)c(OC(F)F)c3Cl)c(F)cc2C#N)c1 [Example 57]
16,logP: 4.74^a),Cc1ccc(Oc2cc(-c3nn(C)c(OC(F)F)c3Cl)c(F)cc2C#N)cc1C [Example 120]
17,logP: 4.59^a),Cc1ccc(Cl)c(Oc2cc(-c3nn(C)c(OC(F)F)c3Cl)c(F)cc2C#N)c1 [Example 125]
18,logP: 3.80^a),COc1cccc(Oc2cc(-c3nn(C)c(OC(F)F)c3Br)c(F)cc2C#N)c1OC [Example 112]
19,logP: 4.59^a),Cn1nc(-c2cc(Oc3ccc(C(F)(F)F)cc3)c(C#N)cc2F)c(Cl)c1OC(F)F [Example 52]
20,logP: 3.66^a),CC(=O)c1ccc(Oc2cc(-c3nn(C)c(OC(F)F)c3Cl)c(F)cc2C#N)cc1 [Example 84]
21,logP: 4.40^a),CCN(CC)c1cccc(Oc2cc(-c3nn(C)c(OC(F)F)c3Cl)c(F)cc2C#N)c1 [Example 122]
22,logP: 4.13^a),Cn1nc(-c2cc(Oc3cccc(F)c3F)c(C#N)cc2F)c(Cl)c1OC(F)F [Example 117]
23,logP: 3.98^a),COc1cccc(Oc2cc(-c3nn(C)c(OC(F)F)c3Cl)c(F)cc2C#N)c1OC [Example 124]
24,logP: 4.55^a),Cn1nc(-c2cc(Oc3cccc(C(F)(F)F)c3)c(C#N)cc2F)c(Cl)c1OC(F)F [Example 51]
25,logP: 4.28^a),Cn1nc(-c2cc(Oc3ccccc3Cl)c(C#N)cc2F)c(Cl)c1OC(F)F [Example 67]
26,logP: 4.55^a),CC(C)Oc1ccccc1Oc1cc(-c2nn(C)c(OC(F)F)c2Cl)c(F)cc1C#N [Example 119]
27,logP: 4.72^a),Cn1nc(-c2cc(Oc3cccc(OC(F)(F)F)c3)c(C#N)cc2F)c(Cl)c1OC(F)F [Example 123]
28,logP: 4.89^a),Cn1nc(-c2cc(Oc3ccc(Cl)c(Cl)c3)c(C#N)cc2F)c(Cl)c1OC(F)F [Example 118]
29,logP: 4.70^a),Cn1nc(-c2cc(Oc3ccc(OC(F)(F)F)cc3)c(C#N)cc2F)c(Cl)c1OC(F)F [Example 76]

# System: weeds
# Experiment: Pre-emergence test (Example A), activity against weeds
# Type: in vivo
# Settings: soil sprayed about 24 hours after sowing, rated after three weeks
# Description: (§1) Pre-emergence Test Solvent: 5 parts by weight of acetone Emulsifier: 1 part by weight of alkylaryl polyglycol ether To produce a suitable preparation of active compound, 1 part by weight of active compound is mixed with the stated amount of solvent, the stated amount of emulsifier is added and the concentrate is diluted with water to the desired concentration. Seeds of the test plants are sown in normal soil. After approximately 24 hours, the soil is sprayed with the preparation of the active compound in such a way as to apply the particular amount of active compound desired per unit area. The concentration of the spray liquor is chosen so that the amount of active compound desired in each case is applied in 1000 liter of water per hectare. After three weeks, the degree of damage to the plants is rated in % damage in comparison with the development of the untreated control. The figures denote: [table]
row,SMILES,activity against weeds (degree of damage)
1,"CCOC(=O)C(C)Oc1ccc(Oc2cc(-c3nn(C)c(OC(F)F)c3Br)c(F)cc2C#N)cc1 (stereo not shown) [Example 1, ethyl 2-[4-[2-cyano-5-[4-bromo-5-(difluoromethoxy)-1-methyl-1H-pyrazo-3-yl]-4-fluoro-phenoxy]-phenoxy]-propionate]",strong activity against weeds

# System: crop plants, such as, for example, barley, wheat, maize and soya
# Experiment: Pre-emergence test (Example A), compatibility with crop plants
# Type: in vivo
# Settings: rated after three weeks
# Description: as §1
row,compatibility with crop plants,SMILES
1,good compatibility with crop plants,"CCOC(=O)C(C)Oc1ccc(Oc2cc(-c3nn(C)c(OC(F)F)c3Br)c(F)cc2C#N)cc1 (stereo not shown) [Example 1, ethyl 2-[4-[2-cyano-5-[4-bromo-5-(difluoromethoxy)-1-methyl-1H-pyrazo-3-yl]-4-fluoro-phenoxy]-phenoxy]-propionate]"
